Patent publication US6562865B1, “Composition comprising a tramadol material and an anticonvulsant drug” (Ortho-McNeil Pharmaceutical, Inc., priority 1999, dated 2003)
Where two headings read alike, the source gives them in different places.

Key:
[1] = system: hot plate latency response in mice; experiment: Antinociceptive effect in the 48° C. Mouse Hot Plate Model; assay type: in vivo; conditions: for % Maximal Possible Effect: 1.5 hours
Procedure: Mice were placed on a heated surface (48° C.) and the time interval (seconds) between placement and a shaking, licking, or tucking of the hind paw was recorded as the predrug latency response. This same procedure was repeated at various times after the test drug was administered p.o., 10 mL/kg.
The 48° C. Mouse Hot Plate was used to calculate the % maximal possible effect (% MPE) according to the formula: [formula]
The analysis of possible synergistic effect at each fixed ratio was determined as described by Tallarida, et al., above.

[2] = system: mechanical (tactile) allodynia in Chung Model rats; experiment: Antiallodynic effect in the Chung Model (L5 spinal nerve ligation, paw withdrawal threshold with von Frey filaments); conditions: for ED50: Rattus norvegicus, po, read-out: ED50 (SEM) of drug alone
Procedure: The antiallodynic effect of the composition of the present invention in the Chung Model is expressed in % MPE (Maximum Possible Effect).
Pathogen-free, male albino Sprague-Dawley rats, 200 g, were purchased from Harlan Industries (Indianapolis, Ind.) and maintained on a 12-h light/dark cycle (lights on at 06:00 h) in a climate-controlled room with food and water available ad libitum.
The rats were anesthetized with isoflurane inhalant anesthesia. The left lumbar spinal nerve at the level of L5 was tightly ligated (4-0 silk suture) distal to the dorsal root ganglion and prior to entrance into the sciatic nerve, as described by Kim and Chung. The incisions were closed and the rats were allowed to recover under conditions described above. This procedure results in mechanical allodynia in the left hind paw. The sham operation, when performed, consisted of a similar surgical procedure lacking only the final ligation of the spinal nerve. Mechanical (tactile) allodynia was assessed by recording the pressure at which the affected paw (ipsilateral to the site of nerve injury) was withdrawn from graded stimuli (von Frey filaments ranging from 4.0 to 148.1 mN) applied perpendicularly to the plantar surface of the paw (between the footpads) through wire-mesh observation cages. A paw withdrawal threshold (PWT) was determined by sequentially increasing and decreasing the stimulus strength and analyzing withdrawal data using a Dixon non-parametric test (Chaplan, et al). Normal rats, sham operated rats, and the contralateral paw of L5 ligated rats withstand at least 148.1 mN (equivalent to 15 g) of pressure without responding.
The dosing materials were all prepared in the vehicle, a suspension of 0.5% hydroxypropyl methylcellulose in distilled water; drug weights were calculated as the free base. The tramadol solution was prepared first, and the appropriate volume of this solution was added to a neat amount of the anticonvulsant to give the final dosing suspension. Drug weights were calculated as the free base, and the ratios used were based on the respective ED50 values of tramadol and the anticonvulsant. The necessary doses for each ratio were prepared separately and dosed orally in a volume of 10 mL/kg per rat.
The Chung Model rats were all dosed orally with the composition comprising a combination of tramadol hydrochloride (calculated as the base) and the anticonvulsant drug (calculated as the base) or the composition of each agent separately dissolved in distilled water or dissolved in a suspension of 0.5% hydroxypropyl methylcellulose in distilled water. The dosing volume was 10 mL/kg.
The rats were intubated with various doses of tramadol hydrochloride alone, anticonvulsant drug alone, combined doses of tramadol hydrochloride and anticonvulsant or vehicle such as distilled water or a suspension of 0.5% hydroxypropyl methylcellulose in distilled water.
Within a certain time after the oral administration of tramadol hydrochloride alone, the anticonvulsant drug alone, the composition comprising a combination of tramadol hydrochloride and the anticonvulsant drug or vehicle alone, the PWT test was commenced. Each rat was used in the evaluation of only a single dose-ratio.
The analysis of possible synergistic effect for the compositions at each fixed ratio was determined (R. J. Tallarida, et al., Life Sci., 1989, 45, 947). This procedure involves the determination of the total amount in the mixture that is required to produce a specified synergistic antiallodynic effect at the 50% dose level (that is, the ED50mix or Zmix) and the corresponding total amount that would be expected under simple additivity (ED50add or Zadd). Where it is established that Zmix<Zadd for a specific fixed-ratio, then that composition has a synergistic antiallodynic effect. Both the quantities ED50mix and ED50add are random variables.

[3] = drug alone 30 mg/kg p.o., 1 hour
[4] = drug alone 50 mg/kg p.o., 2 hours
[5] = drug alone 60 mg/kg p.o., 1 hour
[6] = drug alone 75 mg/kg p.o., 2 hours
[7] = drug alone 90 mg/kg p.o., 1 hour
[8] = drug alone 100 mg/kg p.o., 2 hours
[9] = drug alone 125 mg/kg p.o., 2 hours
[10] = drug alone 150 mg/kg p.o., 2 hours
[11] = drug alone 250 mg/kg p.o., 2 hours
[12] = drug alone 500 mg/kg p.o., 2 hours
[13] = drug alone 25 mg/kg p.o., 2 hours

| SMILES | % Maximal Possible Effect ([1]; drug alone 10 mg/kg p.o.) [%] | % Maximal Possible Effect ([1]; drug alone 30 mg/kg p.o.) [%] | ED50 ([2]; 1 h) [mg/kg] | ED50 ([2]; 2 h) [mg/kg] | % MPE [2, 3] [% MPE] | % MPE [2, 4] [% MPE] | % MPE [2, 5] [% MPE] | % MPE [2, 6] [% MPE] | % MPE [2, 7] [% MPE] | % MPE [2, 8] [% MPE] | % MPE [2, 9] [% MPE] | % MPE [2, 10] [% MPE] | % MPE [2, 11] [% MPE] | % MPE [2, 12] [% MPE] | % MPE [2, 13] [% MPE] | other results |
| --- | --- | --- | --- | --- | --- | --- | --- | --- | --- | --- | --- | --- | --- | --- | --- | --- |
| COc1cccc(C2(O)CCCCC2CN(C)C)c1 (single isomer, unassigned) [Tramadol, (1R,2R or 1S,2S)-2-[(dimethylamino)methyl]-1-(3-methoxyphenyl)cyclohexanol] | 5.83 | 37.74 | 48.6 | 94.5 | 25.70 | 3.77 | 40.96 | 20.62 | 73.61 | 45.38 | 74.29 | 100 |  |  |  | ED50 ([1]; Mus musculus, po, 1.5 h, p.o., 48° C. hot plate, read-out: ED50 (SEM) at 1.5 Hours): 35.1 mg/kg; % Maximal Possible Effect ([1]; drug alone 100 mg/kg p.o.): 86.62%; % Maximal Possible Effect ([1]; drug alone 300 mg/kg p.o.): 100%; antinociceptive effect in dose-response study ([1]; p.o., 48° C. hot plate): dose-dependent antinociceptive effect; antinociceptive effect at the higher doses ([1]; p.o., 48° C. hot plate, higher doses): Full antinociceptive effect; % MPE ([2]; drug alone 10 mg/kg p.o., 1 hour): 16.79 % MPE; % MPE ([2]; drug alone 120 mg/kg p.o., 1 hour): 84.05 % MPE |
| NCC1(CC(=O)O)CCCCC1 [Gabapentin] |  |  |  | 440 |  |  |  |  |  | 7.31 |  |  | 15.62 | 54.26 |  | % MPE ([2]; drug alone 750 mg/kg p.o., 2 hours): 67.95 % MPE; % MPE ([2]; drug alone 1000 mg/kg p.o., 2 hours): 85.34 % MPE |
| Nc1nnc(-c2cccc(Cl)c2Cl)c(N)n1 [Lamotrigine] |  |  |  | 75.5 |  | 21.95 |  | 48.69 |  |  | 75.09 | 83.51 |  |  | 5.48 |  |
| NC(=O)OC[C@@H](O)c1ccccc1Cl [RWJ-333369, 1,2-ethanediol, 1-(2-chlorophenyl)-, 2-carbamate, (S)-] |  |  | 77.4 |  | 5.57 |  | 30.43 |  | 57.01 |  |  |  |  |  |  | % MPE ([2]; drug alone 45 mg/kg p.o., 1 hour): 23.01 % MPE; % MPE ([2]; drug alone 75 mg/kg p.o., 1 hour): 54.54 % MPE |
| CC1(C)O[C@@H]2[C@@H](CO[C@@]3(COS(N)(=O)=O)OC(C)(C)O[C@@H]23)O1 [Topiramate, 2,3,4,5-bis-O-(1-methylethylidene)-β-D-fructopyranose sulfamates] | 0.82 | 9.71 |  | 98 |  | 26.58 |  |  |  | 56.42 |  |  | 76.51 | 94.38 | 11.54 |  |
